# Results published in US12492188B2, “1H-benzo[D]imidazole derivatives as TLR9 inhibitors for the treatment of fibrosis” (BRISTOL-MYERS SQUIBB COMPANY, priority 2020, dated 2025).
# pIC50: −log10 of the molar value. Where two headings read alike, the source gives them in different places.
# Experiments:
# Type in all cases: cell-based
# human TLR8 = target: T1, human TLR8 (Homo sapiens, UniProt Q9NR97); experiment: TLR8 inhibition reporter assay (HEK-Blue cells, secreted embryonic alkaline phosphatase reporter); conditions: HEK-Blue cells overexpressing human TLR8, stimulated with R848 15.9 μM; read-out: TLR 8 IC50
# T1 construct: host or cells: HEK-Blue cells (HEK293-derived reporter line)
# T1 sequence (Q9NR97 27-1041): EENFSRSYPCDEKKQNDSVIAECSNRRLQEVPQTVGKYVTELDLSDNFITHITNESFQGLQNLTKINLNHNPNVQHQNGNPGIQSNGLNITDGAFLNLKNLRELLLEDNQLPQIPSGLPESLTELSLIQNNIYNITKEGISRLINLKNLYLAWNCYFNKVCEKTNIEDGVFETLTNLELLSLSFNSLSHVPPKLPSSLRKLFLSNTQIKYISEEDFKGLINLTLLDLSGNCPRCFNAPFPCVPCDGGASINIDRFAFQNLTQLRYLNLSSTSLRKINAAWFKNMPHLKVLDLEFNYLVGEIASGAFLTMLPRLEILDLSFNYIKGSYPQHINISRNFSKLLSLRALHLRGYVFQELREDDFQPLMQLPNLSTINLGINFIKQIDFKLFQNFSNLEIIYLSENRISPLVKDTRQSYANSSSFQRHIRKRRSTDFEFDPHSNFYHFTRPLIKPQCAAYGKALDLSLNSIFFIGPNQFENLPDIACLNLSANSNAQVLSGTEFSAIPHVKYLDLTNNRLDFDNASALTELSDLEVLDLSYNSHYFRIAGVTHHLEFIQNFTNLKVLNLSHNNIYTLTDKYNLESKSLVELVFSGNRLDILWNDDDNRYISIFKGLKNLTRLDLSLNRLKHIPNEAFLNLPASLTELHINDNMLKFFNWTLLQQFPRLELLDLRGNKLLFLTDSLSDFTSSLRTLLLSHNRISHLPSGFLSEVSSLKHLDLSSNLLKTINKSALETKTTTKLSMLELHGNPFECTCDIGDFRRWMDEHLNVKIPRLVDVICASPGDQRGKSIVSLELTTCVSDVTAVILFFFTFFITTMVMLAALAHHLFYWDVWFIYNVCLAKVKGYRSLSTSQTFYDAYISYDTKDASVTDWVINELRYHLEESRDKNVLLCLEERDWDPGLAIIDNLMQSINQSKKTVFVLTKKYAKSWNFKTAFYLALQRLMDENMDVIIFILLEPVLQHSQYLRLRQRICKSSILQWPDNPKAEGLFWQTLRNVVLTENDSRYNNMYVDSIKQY
# Procedure, shortened: (§1)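 Steps: seed receptor-specific HEK-Blue cells; add compound, 0.05 nM–50 μM; wait 30 min at room temperature; add final gardiquimod 7.5 μM, R848 15.9 μM or ODN2006 5 nM for TLR7, TLR8 or TLR9; incubate 22 h at 37 °C; detect NF-κB/AP-1-driven SEAP.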
# human TLR9 = target: T2, human TLR9 (Homo sapiens, UniProt Q9NR96); experiment: TLR9 inhibition reporter assay (HEK-Blue cells, secreted embryonic alkaline phosphatase reporter)
# T2 construct: host or cells: HEK-Blue cells (HEK293-derived reporter line)
# T2 sequence (Q9NR96 26-1032): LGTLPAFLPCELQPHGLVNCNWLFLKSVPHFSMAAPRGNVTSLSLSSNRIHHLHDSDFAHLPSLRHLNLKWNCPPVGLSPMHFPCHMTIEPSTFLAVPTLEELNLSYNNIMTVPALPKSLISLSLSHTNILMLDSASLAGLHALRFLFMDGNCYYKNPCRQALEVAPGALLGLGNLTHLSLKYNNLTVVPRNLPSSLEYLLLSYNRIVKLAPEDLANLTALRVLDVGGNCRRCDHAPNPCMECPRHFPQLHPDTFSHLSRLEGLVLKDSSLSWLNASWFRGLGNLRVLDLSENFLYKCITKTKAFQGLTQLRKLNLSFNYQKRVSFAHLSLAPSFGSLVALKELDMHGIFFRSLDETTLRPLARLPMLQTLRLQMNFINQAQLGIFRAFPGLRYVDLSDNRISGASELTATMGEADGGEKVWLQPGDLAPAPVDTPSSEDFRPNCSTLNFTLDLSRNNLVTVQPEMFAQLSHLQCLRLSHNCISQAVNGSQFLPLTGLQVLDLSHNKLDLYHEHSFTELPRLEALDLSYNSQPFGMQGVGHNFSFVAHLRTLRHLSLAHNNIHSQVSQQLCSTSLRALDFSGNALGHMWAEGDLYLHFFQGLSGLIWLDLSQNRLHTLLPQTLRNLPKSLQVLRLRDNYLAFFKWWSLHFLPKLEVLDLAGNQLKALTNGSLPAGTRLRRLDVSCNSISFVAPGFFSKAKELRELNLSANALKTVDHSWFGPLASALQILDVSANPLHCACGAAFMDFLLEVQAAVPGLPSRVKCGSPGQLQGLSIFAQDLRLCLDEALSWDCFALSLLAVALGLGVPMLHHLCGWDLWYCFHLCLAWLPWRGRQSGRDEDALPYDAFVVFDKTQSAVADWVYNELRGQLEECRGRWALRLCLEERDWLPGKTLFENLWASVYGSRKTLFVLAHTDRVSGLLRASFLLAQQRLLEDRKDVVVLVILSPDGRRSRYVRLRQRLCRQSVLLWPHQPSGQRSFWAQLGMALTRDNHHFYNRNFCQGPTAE
# Procedure, shortened: as §1
# human TLR7 = target: T3, human TLR7 (Homo sapiens, UniProt Q9NYK1); experiment: TLR7 inhibition reporter assay (HEK-Blue cells, secreted embryonic alkaline phosphatase reporter); conditions: HEK-Blue cells overexpressing human TLR7, stimulated with gardiquimod 7.5 μM; read-out: TLR 7 IC50
# T3 construct: host or cells: HEK-Blue cells (HEK293-derived reporter line)
# T3 sequence (Q9NYK1 27-1049): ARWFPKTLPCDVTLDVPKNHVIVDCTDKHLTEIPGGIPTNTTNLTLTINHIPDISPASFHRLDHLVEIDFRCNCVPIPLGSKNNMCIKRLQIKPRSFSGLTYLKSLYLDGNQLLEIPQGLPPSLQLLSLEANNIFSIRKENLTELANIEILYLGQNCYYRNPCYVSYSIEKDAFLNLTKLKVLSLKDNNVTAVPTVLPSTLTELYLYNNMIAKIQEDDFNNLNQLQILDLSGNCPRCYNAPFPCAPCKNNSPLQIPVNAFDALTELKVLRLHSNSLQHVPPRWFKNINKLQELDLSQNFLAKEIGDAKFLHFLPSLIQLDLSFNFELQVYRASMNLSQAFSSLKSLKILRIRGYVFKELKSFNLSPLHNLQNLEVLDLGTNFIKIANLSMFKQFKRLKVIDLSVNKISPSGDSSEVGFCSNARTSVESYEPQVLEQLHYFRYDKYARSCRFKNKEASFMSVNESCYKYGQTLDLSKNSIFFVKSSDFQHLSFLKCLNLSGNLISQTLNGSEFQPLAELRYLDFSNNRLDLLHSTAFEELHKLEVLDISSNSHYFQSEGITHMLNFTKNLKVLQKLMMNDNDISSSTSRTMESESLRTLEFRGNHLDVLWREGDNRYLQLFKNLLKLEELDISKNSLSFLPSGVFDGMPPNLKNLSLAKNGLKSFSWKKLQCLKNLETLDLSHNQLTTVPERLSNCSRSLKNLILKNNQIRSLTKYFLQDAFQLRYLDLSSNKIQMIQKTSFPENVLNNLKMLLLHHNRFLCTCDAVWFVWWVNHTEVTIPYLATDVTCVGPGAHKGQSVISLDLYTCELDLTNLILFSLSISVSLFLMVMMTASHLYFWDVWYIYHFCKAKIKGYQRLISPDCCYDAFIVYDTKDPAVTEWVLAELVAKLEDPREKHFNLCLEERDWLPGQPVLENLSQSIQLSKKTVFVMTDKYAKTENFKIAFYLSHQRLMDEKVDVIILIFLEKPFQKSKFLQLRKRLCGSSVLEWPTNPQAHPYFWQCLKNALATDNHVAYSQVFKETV
# Procedure, shortened: as §1
# [1] = HEK-Blue cells overexpressing human TLR9, stimulated with ODN2006 5 nM, read-out: TLR 9 IC50
# [2] = HEK-Blue human TLR9 reporter cells
Structure (SMILES),pIC50 (human TLR8),pIC50 (human TLR9; [1]),pIC50 (human TLR9; [2]),pIC50 (human TLR7)
"Cn1c(-c2ccc(S(C)(=O)=O)cc2)nc2c(F)cc(C3CCN(C4CCCN(CC5CC5)CC4)CC3)cc21 (single isomer, unassigned) [Example 299, 6-(1-(1-(cyclopropylmethyl)azepan-4-yl)piperidin-4-yl)-4-fluoro-1-methyl-2-(4-(methylsulfonyl)phenyl)-1H-benzo[d]imidazole]",< 4.30,8.48,8.48,5.68
"COCCN1CCCC(N2CCC(c3cc(F)c4nc(-c5ccc(S(C)(=O)=O)cc5)n(C)c4c3)CC2)CC1 (single isomer, unassigned) [Example 302, 4-fluoro-6-(1-(1-(2-methoxyethyl)azepan-4-yl)piperidin-4-yl)-1-methyl-2-(4-(methylsulfonyl)phenyl)-1H-benzo[d]imidazole]",< 4.30,7.32,7.32,5.72
"COCCN1CCCC(N2CCC(c3cc(F)c4nc(-c5ccc(S(C)(=O)=O)cc5)n(C)c4c3)CC2)CC1 (single isomer, unassigned) [Example 303, 4-fluoro-6-(1-(1-(2-methoxyethyl)azepan-4-yl)piperidin-4-yl)-1-methyl-2-(4-(methylsulfonyl)phenyl)-1H-benzo[d]imidazole]",< 4.30,7.85,7.85,5.38
"Cc1cc(C2CCN(C3CCCN(C4CCOCC4)CC3)CC2)cc2c1nc(-c1ccc(S(C)(=O)=O)cc1)n2C (single isomer, unassigned) [Example 306, 1,4-dimethyl-2-(4-(methylsulfonyl)phenyl)-6-(1-(1-(tetrahydro-2H-pyran-4-yl)azepan-4-yl)piperidin-4-yl)-1H-benzo[d]imidazole]",< 4.30,7.77,7.77,5.02
"Cc1cc(C2CCN(C3CCCN(C4CCOCC4)CC3)CC2)cc2c1nc(-c1ccc(S(C)(=O)=O)cc1)n2C (single isomer, unassigned) [Example 307, 1,4-dimethyl-2-(4-(methylsulfonyl)phenyl)-6-(1-(1-(tetrahydro-2H-pyran-4-yl)azepan-4-yl)piperidin-4-yl)-1H-benzo[d]imidazole]",< 4.30,8.46,8.46,4.69
"COCCN1CCCC(N2CCC(c3cc(C)c4nc(-c5ccc(S(C)(=O)=O)cc5)n(C)c4c3)CC2)CC1 (single isomer, unassigned) [Example 308, 6-(1-(1-(2-methoxyethyl)azepan-4-yl)piperidin-4-yl)-1,4-dimethyl-2-(4-(methylsulfonyl)phenyl)-1H-benzo[d]imidazole]",< 4.30,8.17,8.17,5.59
"COCCN1CCCC(N2CCC(c3cc(C)c4nc(-c5ccc(S(C)(=O)=O)cc5)n(C)c4c3)CC2)CC1 (single isomer, unassigned) [Example 309, 6-(1-(1-(2-methoxyethyl)azepan-4-yl)piperidin-4-yl)-1,4-dimethyl-2-(4-(methylsulfonyl)phenyl)-1H-benzo[d]imidazole]",< 4.30,7.47,7.47,5.72
"CC(C)CN1C2CCC1CC(N1CCC(c3cc(F)c4nc(-c5ccc(S(C)(=O)=O)cc5)n(C5CC5)c4c3)CC1)C2 (single isomer, unassigned) [Example 322, 1-cyclopropyl-4-fluoro-6-(1-(8-isobutyl-8-azabicyclo[3.2.1]octan-3-yl)piperidin-4-yl)-2-(4-(methylsulfonyl)phenyl)-1H-benzo[d]imidazole]",< 4.30,7.92,7.92,5.85
"CC(C)CN1C2CCC1CC(N1CCC(c3cc(F)c4nc(-c5ccc(S(C)(=O)=O)cc5)n(C5CC5)c4c3)CC1)C2 (single isomer, unassigned) [Example 323, 1-cyclopropyl-4-fluoro-6-(1-(8-isobutyl-8-azabicyclo[3.2.1]octan-3-yl)piperidin-4-yl)-2-(4-(methylsulfonyl)phenyl)-1H-benzo[d]imidazole]",< 4.30,7.22,7.22,5.68
"CS(=O)(=O)c1ccc(-c2nc3c(F)cc(C4CCN(C5CC6CCC(C5)N6CC5CC5)CC4)cc3n2C2CC2)cc1 (single isomer, unassigned) [Example 324, 1-cyclopropyl-6-(1-(8-(cyclopropylmethyl)-8-azabicyclo[3.2.1]octan-3-yl)piperidin-4-yl)-4-fluoro-2-(4-(methylsulfonyl)phenyl)-1H-benzo[d]imidazole]",< 4.30,7.38,7.38,5.82
